Laboratory results: ChEMBL document CHEMBL1287690, “Mycoepoxydiene, a fungal polyketide, induces cell cycle arrest at the G2/M phase and apoptosis in HeLa cells” (Bioorg Med Chem Lett, 2010)
Active and inactive are the calls of the source. The rule behind the calls is not given here.

Experiments:
KB = test: Cytotoxicity against human KB cells by MTT assay; type: functional, cell-based
AGS = test: Growth inhibition in human AGS cells after 72 hrs by MTT assay; type: functional, cell-based
HT-29 = test: Growth inhibition in human HT-29 cells after 72 hrs by MTT assay; type: functional, cell-based
DU-145 = test: Growth inhibition in human DU145 cells after 72 hrs by MTT assay; type: functional, cell-based
MDA-MB-435 = test: Growth inhibition in human MDA-MB-435 cells after 72 hrs by MTT assay; type: functional, cell-based
MDA-MB-231 = test: Growth inhibition in human MDA-MB-231 cells after 72 hrs by MTT assay; type: functional, cell-based
MCF7 = test: Growth inhibition in human MCF7 cells after 72 hrs by MTT assay; type: functional, cell-based
U2OS = test: Growth inhibition in human U2OS cells after 72 hrs by MTT assay; type: functional, cell-based
HeLa [1] = test: Growth inhibition in human HeLa cells after 72 hrs by MTT assay; type: functional, cell-based
OVCAR-3 = test: Growth inhibition in human OVCAR-3 cells after 72 hrs by MTT assay; type: functional, cell-based
A549 = test: Growth inhibition in human A549 cells after 72 hrs by MTT assay; type: functional, cell-based
HeLa [2] = test: Cytotoxicity against human HeLa cells after 72 hrs by MTT assay; type: functional, cell-based
HeLa [3] = test: Induction of apoptosis in human HeLa cells assessed as increase of dead cells after 24 hrs using propidium iodide staining by flow cytometry; type: functional, cell-based
HeLa [4] = test: Induction of apoptosis in human HeLa cells assessed as increase of dead cells at 11 uM using propidium iodide staining by flow cytometry; type: functional, cell-based; conditions: TDE = time-dependent effect
HeLa [5] = test: Induction of apoptosis in human HeLa cells assessed as increase of dead cells at 12 uM using propidium iodide staining by flow cytometry; type: functional, cell-based; conditions: TDE = time-dependent effect
HeLa [6] = test: Induction of apoptosis in human HeLa cells assessed as morphological changes at 14 to 21 uM after 9 hrs by phase contrast microscopic analysis; type: functional, cell-based
HeLa [7] = test: Induction of apoptosis in human HeLa cells assessed as increase in actin stress fiber formation across cell body after 12 hrs by phase contrast microscopic analysis; type: functional, cell-based; conditions: TDE = time-dependent effect
HeLa [8] = test: Induction of apoptosis in human HeLa cells assessed as increase in actin stress fiber formation across cell body at 14 to 21 uM by phase contrast microscopic analysis; type: functional, cell-based; conditions: TDE = time-dependent effect
HeLa [9] = test: Cell cycle arrest in human HeLa cells assessed as accumulation at G2/M phase at 14 uM after 12 hrs using propidium iodide staining by flow cytometry relative to control; type: functional
HeLa [10] = test: Induction of apoptosis in human HeLa cells assessed as reduction in expression of Cdc2 at 14 to 21 uM by immunoblot assay; type: functional, cell-based; conditions: TDE = time-dependent effect
HeLa [11] = test: Induction of apoptosis in human HeLa cells assessed as reduction in expression of Cdc2 after 12 hrs by immunoblot assay; type: functional, cell-based
HeLa [12] = test: Induction of apoptosis in human HeLa cells assessed as reduction in expression of p34 after 12 hrs by immunoblot assay; type: functional, cell-based
HeLa [13] = test: Induction of apoptosis in human HeLa cells assessed as reduction in expression of GADD45alpha after 12 hrs by immunoblot assay; type: functional, cell-based
HeLa [14] = test: Induction of apoptosis in human HeLa cells assessed as reduction in expression of WEE1 after 12 hrs by immunoblot assay; type: functional, cell-based
HeLa [15] = test: Induction of apoptosis in human HeLa cells assessed as reduction in expression of Myt1 after 12 hrs by immunoblot assay; type: functional, cell-based
HeLa [16] = test: Induction of apoptosis in human HeLa cells assessed as reduction in expression of chk1 after 12 hrs by immunoblot assay; type: functional, cell-based
HeLa [17] = test: Induction of apoptosis in human HeLa cells assessed as reduction in expression of chk2 after 12 hrs by immunoblot assay; type: functional, cell-based
HeLa [18] = test: Induction of apoptosis in human HeLa cells assessed as increase in production of p21 at 14 to 21 uM after 12 hrs by immunoblot assay; type: functional, cell-based
HeLa [19] = test: Induction of apoptosis in human HeLa cells assessed as increase in production of cyclin B1 at 14 to 21 uM after 12 hrs by immunoblot assay; type: functional, cell-based
HeLa [20] = test: Induction of apoptosis in human HeLa cells assessed as increase in cytochrome C in cytoplasm at 21 uM after 20 hrs by Western blotting; type: functional, cell-based
[21] = biological target: c-Jun N-terminal kinase, JNK (Homo sapiens) (UniProt P45983+P53779+P45984); test: Induction of JNK phosphorylation at Thr183/Tyr185 in human HeLa cells at 21 uM after 30 mins by Western blotting; type: cell-based
[22] = biological target: MAP kinase p38 (Homo sapiens) (UniProt O15264+Q15759+Q16539+P53778); test: Induction of p38 phosphorylation at Thr180/Tyr182 in human HeLa cells assessed at 21 uM after 30 mins by Western blotting; type: cell-based
HeLa [23] = test: Induction of apoptosis in human HeLa cells assessed cell death up to 20 uM after 48 hrs using propidium iodide staining by flow cytometry in presence of JNK inhibitor 2 treated 1 hr before compound challenge; type: functional, cell-based
HeLa [24] = test: Induction of apoptosis in human HeLa cells assessed cell death up to 20 uM after 48 hrs using propidium iodide staining by flow cytometry in presence of SB-203580 treated 1 hr before compound challenge; type: functional, cell-based
HeLa [25] = test: Induction of apoptosis in human HeLa cells assessed as increase in cleavage fragments of p17 and p12 at 21 uM after 12 to 28 hrs by Western blotting; type: functional, cell-based
HeLa [26] = test: Induction of apoptosis in human HeLa cells assessed as increase in caspase-3 cleavage at 21 uM after 12 to 28 hrs by Western blotting in presence of z-VAD-fmk; type: functional, cell-based
HeLa [27] = test: Induction of apoptosis in human HeLa cells assessed as cell death in presence of 25 uM of […] z-VAD-fmk; type: functional, cell-based
HeLa [28] = test: Induction of apoptosis in human HeLa cells assessed as disruption of tubulin cytoskeleton at 14 to 21 uM by phase contrast microscopic analysis; type: functional, cell-based
HeLa [29] = test: Cell cycle arrest in human HeLa cells assessed as accumulation at G2/M phase at 21 uM after 12 hrs using propidium iodide staining by flow cytometry relative to control; type: functional
HeLa [30] = test: Cell cycle arrest in human HeLa cells assessed as accumulation at sub-G1 phase at 14 uM after 36 hrs using propidium iodide staining by flow cytometry relative to control; type: functional
HeLa [31] = test: Cell cycle arrest in human HeLa cells assessed as accumulation at sub-G1 phase at 21 uM after 36 hrs using propidium iodide staining by flow cytometry relative to control; type: functional
HeLa [32] = test: Cell cycle arrest in human HeLa cells assessed as accumulation at G2/M phase at 14 uM after 36 hrs using propidium iodide staining by flow cytometry relative to control; type: functional
HeLa [33] = test: Cell cycle arrest in human HeLa cells assessed as accumulation at G2/M phase at 21 uM after 36 hrs using propidium iodide staining by flow cytometry relative to control; type: functional
HeLa [34] = test: Induction of apoptosis in human HeLa cells assessed as reduction in expression of p34 at 14 to 21 uM by immunoblot assay; type: functional, cell-based; conditions: TDE = time-dependent effect
HeLa [35] = test: Induction of apoptosis in human HeLa cells assessed as reduction in expression of GADD45alpha at 14 to 21 uM by immunoblot assay; type: functional, cell-based; conditions: TDE = time-dependent effect
HeLa [36] = test: Induction of apoptosis in human HeLa cells assessed as reduction in expression of WEE1 at 14 to 21 uM by immunoblot assay; type: functional, cell-based; conditions: TDE = time-dependent effect
HeLa [37] = test: Induction of apoptosis in human HeLa cells assessed as reduction in expression of Myt1 at 14 to 21 uM by immunoblot assay; type: functional, cell-based; conditions: TDE = time-dependent effect
HeLa [38] = test: Induction of apoptosis in human HeLa cells assessed as reduction in expression of chk1 at 14 to 21 uM by immunoblot assay; type: functional, cell-based; conditions: TDE = time-dependent effect
HeLa [39] = test: Induction of apoptosis in human HeLa cells assessed as reduction in expression of chk2 at 14 to 21 uM by immunoblot assay; type: functional, cell-based; conditions: TDE = time-dependent effect
HeLa [40] = test: Induction of JNK expression in human HeLa cells at 21 uM after 8 hrs by Western blotting; type: functional, cell-based
HeLa [41] = test: Induction of p38 expression in human HeLa cells at 21 uM after 8 hrs by Western blotting; type: functional, cell-based
HeLa [42] = test: Induction of apoptosis in human HeLa cells assessed as increase in PARP cleavage at 21 uM after 12 to 28 hrs by Western blotting; type: functional, cell-based

`CC(=O)O[C@H]1C=CC(=O)O[C@H]1[C@@H]1[C@H](C)[C@H]2C=CC=C[C@@H]1O2` [MYCOEPOXYDIENE] was tested, and the IC50 (KB) was < 21.5 µM, the “growth inhibition (GI)” value (AGS) was “Active” and the “growth inhibition (GI)” value (HT-29) was “Active”. For the same compound, the “growth inhibition (GI)” value (DU-145) was “Active”, the “growth inhibition (GI)” value (MDA-MB-435) was “Active” and the “growth inhibition (GI)” value (MDA-MB-231) was “Active”. For the same compound, the “growth inhibition (GI)” value (MCF7) was “Active”, the “growth inhibition (GI)” value (U2OS) was “Active” and the “growth inhibition (GI)” value (HeLa [1]) was “Active”. The “growth inhibition (GI)” value (OVCAR-3) was “Active”, the “growth inhibition (GI)” value (A549) was “Active” and the IC50 (HeLa [2]) was 16.8 µM. For the same compound, the Activity (HeLa [3]) was “Dose-dependent effect”, the Activity (HeLa [4]) was “tde” and the Activity (HeLa [5]) was “tde”. The Activity (HeLa [6]) was “Active”, the Activity (HeLa [7]) was “tde” and the Activity (HeLa [8]) was “tde”. The Activity (HeLa [9]) was 40.9%, the Activity (HeLa [10]) was “tde” and the Activity (HeLa [11]) was “Dose-dependent effect”. The Activity (HeLa [12]) was “Dose-dependent effect”, the Activity (HeLa [13]) was “Dose-dependent effect” and the Activity (HeLa [14]) was “Dose-dependent effect”. The Activity (HeLa [15]) was “Dose-dependent effect”, the Activity (HeLa [16]) was “Dose-dependent effect” and the Activity (HeLa [17]) was “Dose-dependent effect”. For the same compound, the Activity (HeLa [18]) was “Active”, the Activity (HeLa [19]) was “Active” and the Activity (HeLa [20]) was “Active”. For the same compound, the Activity [21] was “Active”, the Activity [22] was “Active” and the Activity (HeLa [23]) was “Active”. The Activity (HeLa [24]) was “Active”, the Activity (HeLa [25]) was “Active” and the Activity (HeLa [26]) was “inactive”. The Activity (HeLa [27]) was “inactive”, the Activity (HeLa [28]) was “Dose-dependent effect” and the Activity (HeLa [29]) was 47.5%. The Activity (HeLa [30]) was 4.8%, the Activity (HeLa [31]) was 23.3% and the Activity (HeLa [32]) was 31.4%. The Activity (HeLa [33]) was 31.3%, the Activity (HeLa [34]) was “tde” and the Activity (HeLa [35]) was “tde”. For the same compound, the Activity (HeLa [36]) was “tde”, the Activity (HeLa [37]) was “tde” and the Activity (HeLa [38]) was “tde”. The Activity (HeLa [39]) was “tde”, the Activity (HeLa [40]) was “inactive” and the Activity (HeLa [41]) was “inactive”. The Activity (HeLa [42]) was “Active”.
